# According to patent US20230085307A1, “PYRIDAZINONE COMPOUND AND HERBICIDE” (NISSAN CHEMICAL CORPORATION, priority 2019, published 2023):
# What was measured:
# chickweed [1] = test: Test Example 5: herbicidal effect by foliage application, plastic box (Table 20, symbol P); assay type: in vivo, common chickweed (Stellaria media); conditions: foliage application, 320 g/ha, evaluated three weeks after application
# Summary of the method: (§1)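 Foliar spray test: emulsion formulation diluted in water to a set application rate, sprayed onto 14-day-old plants raised in diluvial soil at 25° C to 30° C under glass. Both herbicidal effect and crop effect rated visually three weeks later.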
# lambsquarters [2] = test: Test Example 4: herbicidal effect by soil treatment (Table 19, symbol O); assay type: in vivo, lambsquarters (Chenopodium album); conditions: amount of applied herbicide 320 g/ha
# Summary of the method: (§2)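 Herbicidal effect was rated 3 weeks after treatment, using the scoring criteria of an earlier test. The compound, formulated as an emulsion and diluted in water to a set herbicide amount, had been sprayed uniformly on soil over freshly sown seeds. Growth took place in a greenhouse at 25° C. to 30° C.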
# green foxtail [3] = test: Test Example 5: herbicidal effect by foliage application, plastic box (Table 20, symbol G); assay type: in vivo, green foxtail (Setaria viridis); conditions: foliage application, 320 g/ha, evaluated three weeks after application
# Summary of the method: as §1
# southern crabgrass [4] = test: Test Example 4: herbicidal effect by soil treatment (Table 19, symbol F); assay type: in vivo, southern crabgrass (Digitaria ciliaris); conditions: amount of applied herbicide 320 g/ha
# Summary of the method: as §2
# redroot pigweed [5] = test: Test Example 4: herbicidal effect by soil treatment (Table 19, symbol N); assay type: in vivo, redroot pigweed (Amaranthus retroflexus); conditions: amount of applied herbicide 320 g/ha
# Summary of the method: as §2
# chickweed [6] = test: Test Example 4: herbicidal effect by soil treatment (Table 19, symbol P); assay type: in vivo, common chickweed (Stellaria media); conditions: amount of applied herbicide 320 g/ha
# Summary of the method: as §2
# barnyard grass [7] = test: Test Example 4: herbicidal effect by soil treatment (Table 19, symbol H); assay type: in vivo, barnyard grass (Echinochloa crus-galli); conditions: amount of applied herbicide 320 g/ha
# Summary of the method: as §2
# windgrass [8] = test: Test Example 5: herbicidal effect by foliage application, plastic box (Table 20, symbol L); assay type: in vivo, windgrass (Apera spica-venti); conditions: foliage application, 320 g/ha, evaluated three weeks after application
# Summary of the method: as §1
# velvetleaf [9] = test: Test Example 4: herbicidal effect by soil treatment (Table 19, symbol M); assay type: in vivo, velvetleaf (Abutilon theophrasti); conditions: amount of applied herbicide 320 g/ha
# Summary of the method: as §2
# oval-leafed pondweed = test: Test Example 1: herbicidal activity, application before weed generation under submerged conditions (Table 16, symbol C); assay type: in vivo, oval-leafed pondweed (Monochoria vaginalis); conditions: 320 g/ha applied herbicide
# Summary of the method: (§3)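 Alluvial soil was flooded to 4 cm depth, weed seeds were sown mixed and 2.5-leaf rice seedlings were transplanted. On sowing day, the compound's emulsion, diluted in water to a set dose, was applied to the water surface. Plants grew at 25–30 °C and were scored 0–5 after three weeks.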
# green foxtail [10] = test: Test Example 4: herbicidal effect by soil treatment (Table 19, symbol G); assay type: in vivo, green foxtail (Setaria viridis); conditions: amount of applied herbicide 320 g/ha
# Summary of the method: as §2
# barnyard grass [11] = test: Test Example 3: herbicidal effect by foliage application, Wagner pot (Table 18, symbol H); assay type: in vivo, barnyard grass (Echinochloa crus-galli); conditions: amount of applied herbicide 320 g/ha
# Summary of the method: (§4)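 Plants were sown in alluvial soil held under 0.1–0.5 cm standing water and grown 14 days in a greenhouse at 25–30 °C. An emulsifiable formulation, water-diluted to the set dose, was then sprayed onto the foliage, and effects were scored three weeks later using previously defined criteria.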
# Italian ryegrass [12] = test: Test Example 5: herbicidal effect by foliage application, plastic box (Table 20, symbol K); assay type: in vivo, Italian ryegrass (Lolium multiflorum); conditions: foliage application, 320 g/ha, evaluated three weeks after application
# Summary of the method: as §1
# wild oat [13] = test: Test Example 4: herbicidal effect by soil treatment (Table 19, symbol I); assay type: in vivo, wild oat (Avena fatua); conditions: amount of applied herbicide 320 g/ha
# Summary of the method: as §2
# blackgrass [14] = test: Test Example 4: herbicidal effect by soil treatment (Table 19, symbol J); assay type: in vivo, blackgrass (Alopecurus myosuroides); conditions: amount of applied herbicide 320 g/ha
# Summary of the method: as §2
# Italian ryegrass [15] = test: Test Example 4: herbicidal effect by soil treatment (Table 19, symbol K); assay type: in vivo, Italian ryegrass (Lolium multiflorum); conditions: amount of applied herbicide 320 g/ha
# Summary of the method: as §2
# wild oat [16] = test: Test Example 5: herbicidal effect by foliage application, plastic box (Table 20, symbol I); assay type: in vivo, wild oat (Avena fatua); conditions: foliage application, 320 g/ha, evaluated three weeks after application
# Summary of the method: as §1
# lambsquarters [17] = test: Test Example 5: herbicidal effect by foliage application, plastic box (Table 20, symbol O); assay type: in vivo, lambsquarters (Chenopodium album); conditions: foliage application, 320 g/ha, evaluated three weeks after application
# Summary of the method: as §1
# redroot pigweed [18] = test: Test Example 5: herbicidal effect by foliage application, plastic box (Table 20, symbol N); assay type: in vivo, redroot pigweed (Amaranthus retroflexus); conditions: foliage application, 320 g/ha, evaluated three weeks after application
# Summary of the method: as §1
# southern crabgrass [19] = test: Test Example 5: herbicidal effect by foliage application, plastic box (Table 20, symbol F); assay type: in vivo, southern crabgrass (Digitaria ciliaris); conditions: foliage application, 320 g/ha, evaluated three weeks after application
# Summary of the method: as §1
# windgrass [20] = test: Test Example 4: herbicidal effect by soil treatment (Table 19, symbol L); assay type: in vivo, windgrass (Apera spica-venti); conditions: amount of applied herbicide 320 g/ha
# Summary of the method: as §2
# velvetleaf [21] = test: Test Example 5: herbicidal effect by foliage application, plastic box (Table 20, symbol M); assay type: in vivo, velvetleaf (Abutilon theophrasti); conditions: foliage application, 320 g/ha, evaluated three weeks after application
# Summary of the method: as §1
# rice flat sedge = test: Test Example 3: herbicidal effect by foliage application, Wagner pot (Table 18, symbol E); assay type: in vivo, rice flat sedge (Cyperus iria); conditions: amount of applied herbicide 320 g/ha
# Summary of the method: as §4
# persian speedwell [22] = test: Test Example 4: herbicidal effect by soil treatment (Table 19, symbol R); assay type: in vivo, Persian speedwell (Veronica persica); conditions: amount of applied herbicide 320 g/ha
# Summary of the method: as §2
# Chinese sprangletop = test: Test Example 3: herbicidal effect by foliage application, Wagner pot (Table 18, symbol D); assay type: in vivo, chinese sprangletop (Leptochloa chinensis); conditions: amount of applied herbicide 320 g/ha
# Summary of the method: as §4
# late watergrass = test: Test Example 1: herbicidal activity, application before weed generation under submerged conditions (Table 16, symbol A); assay type: in vivo, late watergrass (Echinochloa oryzicola); conditions: 320 g/ha applied herbicide
# Summary of the method: as §3
# barnyard grass [23] = test: Test Example 5: herbicidal effect by foliage application, plastic box (Table 20, symbol H); assay type: in vivo, barnyard grass (Echinochloa crus-galli); conditions: foliage application, 320 g/ha, evaluated three weeks after application
# Summary of the method: as §1
# blackgrass [24] = test: Test Example 5: herbicidal effect by foliage application, plastic box (Table 20, symbol J); assay type: in vivo, blackgrass (Alopecurus myosuroides); conditions: foliage application, 320 g/ha, evaluated three weeks after application
# Summary of the method: as §1
# persian speedwell [25] = test: Test Example 5: herbicidal effect by foliage application, plastic box (Table 20, symbol R); assay type: in vivo, Persian speedwell (Veronica persica); conditions: foliage application, 320 g/ha, evaluated three weeks after application
# Summary of the method: as §1
# Japanese bulrush = test: Test Example 1: herbicidal activity, application before weed generation under submerged conditions (Table 16, symbol B); assay type: in vivo, Japanese bulrush (Schoenoplectus juncoides); conditions: 320 g/ha applied herbicide
# Summary of the method: as §3
structure (smiles),measurement,setting,value
Cc1nn(C)c(=O)c(-c2c(-c3ccccc3Cl)sc3ccc(F)cc23)c1O [2-203],herbicidal effect on P: chickweed (criteria 0-5),chickweed [1],5 (Herbicidal rate of 90% or more (almost completely withered))
same,"O: lambsquarters, herbicidal effect rating",lambsquarters [2],3 (Herbicidal rate of 40% or more and less than 70%)
same,herbicidal effect on G: green foxtail (criteria 0-5),green foxtail [3],4 (Herbicidal rate of 70% or more and less than 90%)
same,"F: southern crabgrass, herbicidal effect rating",southern crabgrass [4],0 (Herbicidal rate of 5% or less (almost no effect))
same,"N: redroot pigweed, herbicidal effect rating",redroot pigweed [5],2 (Herbicidal rate of 20% or more and less than 40%)
same,"P: chickweed, herbicidal effect rating",chickweed [6],3 (Herbicidal rate of 40% or more and less than 70%)
same,"H: barnyard grass, herbicidal effect rating",barnyard grass [7],0 (Herbicidal rate of 5% or less (almost no effect))
same,herbicidal effect on L: windgrass (criteria 0-5),windgrass [8],4 (Herbicidal rate of 70% or more and less than 90%)
same,"M: velvetleaf, herbicidal effect rating",velvetleaf [9],1 (Herbicidal rate of 5% or more and less than 20%)
same,Herbicidal effect on C: oval-leafed pondweed (grade 0-5),oval-leafed pondweed,0 (Herbicidal rate of 5% or less (almost no effect))
same,"G: green foxtail, herbicidal effect rating",green foxtail [10],0 (Herbicidal rate of 5% or less (almost no effect))
same,herbicidal effect on H: barnyard grass,barnyard grass [11],4 (Herbicidal rate of 70% or more and less than 90%)
same,herbicidal effect on K: Italian ryegrass (criteria 0-5),Italian ryegrass [12],2 (Herbicidal rate of 20% or more and less than 40%)
same,"I: wild oat, herbicidal effect rating",wild oat [13],0 (Herbicidal rate of 5% or less (almost no effect))
same,"J: blackgrass, herbicidal effect rating",blackgrass [14],0 (Herbicidal rate of 5% or less (almost no effect))
same,"K: Italian ryegrass, herbicidal effect rating",Italian ryegrass [15],0 (Herbicidal rate of 5% or less (almost no effect))
same,herbicidal effect on I: wild oat (criteria 0-5),wild oat [16],0 (Herbicidal rate of 5% or less (almost no effect))
same,herbicidal effect on O: lambsquarters (criteria 0-5),lambsquarters [17],3 (Herbicidal rate of 40% or more and less than 70%)
same,herbicidal effect on N: redroot pigweed (criteria 0-5),redroot pigweed [18],3 (Herbicidal rate of 40% or more and less than 70%)
same,herbicidal effect on F: southern crabgrass (criteria 0-5),southern crabgrass [19],0 (Herbicidal rate of 5% or less (almost no effect))
same,"L: windgrass, herbicidal effect rating",windgrass [20],0 (Herbicidal rate of 5% or less (almost no effect))
same,herbicidal effect on M: velvetleaf (criteria 0-5),velvetleaf [21],4 (Herbicidal rate of 70% or more and less than 90%)
same,herbicidal effect on E: rice flat sedge,rice flat sedge,5 (Herbicidal rate of 90% or more (almost completely withered))
same,"R: persian speedwell, herbicidal effect rating",persian speedwell [22],0 (Herbicidal rate of 5% or less (almost no effect))
same,herbicidal effect on D: Chinese sprangletop,Chinese sprangletop,4 (Herbicidal rate of 70% or more and less than 90%)
same,Herbicidal effect on A: late watergrass (grade 0-5),late watergrass,2 (Herbicidal rate of 20% or more and less than 40%)
same,herbicidal effect on H: barnyard grass (criteria 0-5),barnyard grass [23],2 (Herbicidal rate of 20% or more and less than 40%)
same,herbicidal effect on J: blackgrass (criteria 0-5),blackgrass [24],0 (Herbicidal rate of 5% or less (almost no effect))
same,herbicidal effect on R: persian speedwell (criteria 0-5),persian speedwell [25],4 (Herbicidal rate of 70% or more and less than 90%)
same,Herbicidal effect on B: Japanese bulrush (grade 0-5),Japanese bulrush,0 (Herbicidal rate of 5% or less (almost no effect))
